BigSolDB 2.1

O=c1cc(CBr)c2ccccc2[nH]1
solubility (mole fraction)
Conditions | 273.15 K | 278.15 K | 283.15 K | 288.15 K | 293.15 K | 298.15 K | 303.15 K | 308.15 K | 313.15 K
in 1,4-dioxane | – | – | – | 0.000504 | 0.000625 | 0.000767 | 0.00092 | 0.00111 | 0.00137
in 2-butanone | 0.000321 | 0.000365 | 0.000408 | 0.000455 | 0.000511 | 0.00057 | 0.000634 | 0.00071 | 0.000792
in DMF | 0.00214 | 0.00272 | 0.00329 | 0.00399 | 0.00464 | 0.00542 | 0.00634 | 0.00729 | 0.00828
in DMSO | – | – | – | – | 0.0141 | 0.0185 | 0.0232 | 0.0284 | 0.0338
in NMP | 0.0044 | 0.00524 | 0.0062 | 0.00719 | 0.00827 | 0.00939 | 0.0108 | 0.0125 | 0.0143
in acetonitrile | 8e-05 | 9e-05 | 0.000104 | 0.000118 | 0.000134 | 0.00015 | 0.000171 | 0.000196 | 0.000223
in ethanol | 0.000173 | 0.000188 | 0.000206 | 0.000227 | 0.000247 | 0.000271 | 0.000301 | 0.000338 | 0.000385
in isopropanol | 0.000136 | 0.000154 | 0.000177 | 0.0002 | 0.000224 | 0.000248 | 0.000279 | 0.000316 | 0.00036
in methanol | 0.000113 | 0.000129 | 0.000146 | 0.000165 | 0.000186 | 0.000207 | 0.000234 | 0.000265 | 0.000303
in n-butanol | 0.00029 | 0.000311 | 0.000333 | 0.000361 | 0.000391 | 0.000425 | 0.000461 | 0.000508 | 0.000558
in n-propanol | 0.000224 | 0.00024 | 0.000262 | 0.000283 | 0.000309 | 0.000341 | 0.000379 | 0.000425 | 0.000476
in toluene | 1.5e-05 | 1.9e-05 | 2.3e-05 | 2.8e-05 | 3.2e-05 | 3.8e-05 | 4.3e-05 | 4.9e-05 | 5.6e-05
